Experimental data as given in PubChem BioAssay AID248 (DTP/NCI, 2004).
Where “and” joins values, the source holds several entries; their conditions need not be identical. Equal values may be shown once. Inconclusive results and toxic doses are left out. No stated cut-off is given here; in the data, active means T/C of 150% or more; inactive means T/C below 125%.

Tested on: L1210 leukemia ip in BDF1 mice, survival T/C
Assay: NCI In Vivo Anticancer Drug Screen. Data for tumor model L1210 Leukemia (intraperitoneal) in B6D2F1 (BDF1) mice
Details: endpoint: mean survival time, higher = longer survival
How it was run: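 In this screen, tumor-bearing mice given compound are compared to those given vehicle, and their survival values are reported as a treated-to-control quotient.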

[1] = dose: 100.0 mg/kg/injection, schedule: Q04DX003 (ip), vehicle: saline
[2] = dose: 200.0 mg/kg/injection, schedule: Q04DX003 (ip), vehicle: saline
[3] = dose: 100.0 mg/kg/injection, schedule: Q01DX001 (ip), vehicle: carboxymethylcellulose (CMC)
[4] = dose: 200.0 mg/kg/injection, schedule: Q01DX001 (ip), vehicle: carboxymethylcellulose (CMC)
[5] = dose: 400.0 mg/kg/injection, schedule: Q01DX001 (ip), vehicle: carboxymethylcellulose (CMC)
[6] = dose: 100.0 mg/kg/injection, schedule: Q01DX001 (ip), vehicle: saline
[7] = dose: 200.0 mg/kg/injection, schedule: Q01DX001 (ip), vehicle: saline
[8] = dose: 400.0 mg/kg/injection, schedule: Q01DX001 (ip), vehicle: saline
[9] = dose: 200.0 mg/kg/injection, schedule: Q01DX009 (ip), vehicle: saline with Tween-80
[10] = dose: 100.0 mg/kg/injection, schedule: Q01DX009 (ip), vehicle: saline
[11] = dose: 200.0 mg/kg/injection, schedule: Q01DX009 (ip), vehicle: saline
[12] = dose: 400.0 mg/kg/injection, schedule: Q04DX003 (ip), vehicle: saline

Measured: T/C

CCCCP(=O)(CC(=O)O)c1ccccc1 (centres undefined)
inactive: dose: 100.0 mg/kg/injection, schedule: Q04DX002 (ip), vehicle: saline with Tween-80 97 % of control | dose: 200.0 mg/kg/injection, schedule: Q04DX002 (ip), vehicle: saline with Tween-80 100 % of control | dose: 400.0 mg/kg/injection, schedule: Q04DX002 (ip), vehicle: saline with Tween-80 90 % of control

CCCCCC(=O)NNc1ccccc1
inactive: dose: 50.0 mg/kg/injection, schedule: Q04DX002 (ip), vehicle: Klucel (hydroxypropylcellulose) (HPC) 104 % of control | dose: 100.0 mg/kg/injection, schedule: Q04DX002 (ip), vehicle: Klucel (hydroxypropylcellulose) (HPC) 104 % of control | dose: 200.0 mg/kg/injection, schedule: Q04DX002 (ip), vehicle: Klucel (hydroxypropylcellulose) (HPC) 111 % of control | dose: 400.0 mg/kg/injection, schedule: Q04DX002 (ip), vehicle: Klucel (hydroxypropylcellulose) (HPC) 104 % of control

c1ccc(N/N=C2/CSCc3ccccc32)cc1
inactive: dose: 100.0 mg/kg/injection, schedule: Q01DX001 (ip), vehicle: saline with Tween-80 97 % of control | dose: 200.0 mg/kg/injection, schedule: Q01DX001 (ip), vehicle: saline with Tween-80 95 % of control | dose: 400.0 mg/kg/injection, schedule: Q01DX001 (ip), vehicle: saline with Tween-80 106 % of control

[Cl][Zn][Cl].[NH-]CCN1CC1.[NH-]CCN1CC1
inactive: dose: 10.0 mg/kg/injection, schedule: Q01DX009 (ip), vehicle: saline 108 % of control | dose: 20.0 mg/kg/injection, schedule: Q01DX009 (ip), vehicle: saline 111 % of control | dose: 20.0 mg/kg/injection, schedule: Q04DX003 (ip), vehicle: saline 104 % of control | dose: 40.0 mg/kg/injection, schedule: Q01DX009 (ip), vehicle: saline 93 % of control | dose: 40.0 mg/kg/injection, schedule: Q04DX003 (ip), vehicle: saline 102 % of control

C1CNCOC1
inactive: [1] 105 % of control | [2] 111 % of control

COC(=O)C(C)[P+](c1ccccc1)(c1ccccc1)c1ccccc1 (centres undefined)
inactive: dose: 1.25 mg/kg/injection, schedule: Q01DX009 (ip), vehicle: saline 108 % of control | dose: 1.65 mg/kg/injection, schedule: Q01DX009 (ip), vehicle: saline 104 % of control and 114 % of control | dose: 2.5 mg/kg/injection, schedule: Q01DX001 (ip), vehicle: saline 96 % of control | dose: 2.5 mg/kg/injection, schedule: Q01DX009 (ip), vehicle: saline 107 % of control and 119 % of control | dose: 3.75 mg/kg/injection, schedule: Q01DX009 (ip), vehicle: saline 109 % of control and 110 % of control | dose: 5.0 mg/kg/injection, schedule: Q01DX001 (ip), vehicle: saline 110 % of control | dose: 5.0 mg/kg/injection, schedule: Q01DX009 (ip), vehicle: saline 97 % of control

COC(=O)c1cccc(-c2cccc(C(=O)OC)c2)c1
inactive: [3] 96 % of control | [4] 96 % of control | [5] 100 % of control

CCOc1ccc(-c2nccs2)cc1N
inactive: dose: 75.0 mg/kg/injection, schedule: Q04DX003 (ip), vehicle: Klucel (hydroxypropylcellulose) (HPC) 104 % of control | dose: 150.0 mg/kg/injection, schedule: Q04DX003 (ip), vehicle: Klucel (hydroxypropylcellulose) (HPC) 92 % of control | dose: 300.0 mg/kg/injection, schedule: Q04DX003 (ip), vehicle: Klucel (hydroxypropylcellulose) (HPC) 93 % of control

COc1ccccc1NP1(=O)OCC(C)([N+](=O)[O-])CO1 (centres undefined)
inactive: [3] 89 % of control | [4] 104 % of control | [5] 93 % of control

CC1(C)N=C(N)N=C(N)N1c1ccc(CCNS(=O)(=O)c2cccc(S(=O)(=O)F)c2)cc1
inactive: [6] 96 % of control | [7] 94 % of control | [8] 96 % of control

CC1=C(Sc2ccccc2)c2ccccc2C1
inactive: [6] 86 % of control | [7] 91 % of control | [8] 91 % of control

COc1ccc(NC(=O)OC/C=C/c2ccccc2)c(OC)c1
inactive: dose: 100.0 mg/kg/injection, schedule: Q01DX009 (ip), vehicle: Klucel (hydroxypropylcellulose) (HPC) 90 % of control | dose: 200.0 mg/kg/injection, schedule: Q01DX009 (ip), vehicle: Klucel (hydroxypropylcellulose) (HPC) 87 % of control

COc1c(O)cc2c(c1OC)-c1ccc(OC)c(=O)cc1C(NC=O)CC2 (centres undefined)
inactive: dose: 100.0 mg/kg/injection, schedule: Q04DX003 (ip), vehicle: saline with Tween-80 116 % of control | dose: 200.0 mg/kg/injection, schedule: Q04DX003 (ip), vehicle: saline with Tween-80 93 % of control

S=C(Nc1ccccc1)c1ccccn1
inactive: dose: 100.0 mg/kg/injection, schedule: Q01DX009 (ip), vehicle: saline with Tween-80 102 % of control | [9] 100 % of control | dose: 400.0 mg/kg/injection, schedule: Q01DX009 (ip), vehicle: saline with Tween-80 90 % of control

COc1cc(C(=O)OC(C)CN2CCOCC2)cc(OC)c1OC (centres undefined)
inactive: dose: 25.0 mg/kg/injection, schedule: Q01DX009 (ip), vehicle: saline 90 % of control | dose: 25.0 mg/kg/injection, schedule: Q04DX003 (ip), vehicle: saline 95 % of control | dose: 50.0 mg/kg/injection, schedule: Q01DX009 (ip), vehicle: saline 101 % of control | dose: 50.0 mg/kg/injection, schedule: Q04DX003 (ip), vehicle: saline 109 % of control | [10] 100 % of control | [1] 101 % of control | [11] 90 % of control | [2] 101 % of control | [12] 111 % of control

Cc1ccc(S(=O)(=O)CCN2CCc3ccccc3C2)cc1
inactive: [6] 103 % of control | [7] 100 % of control | [8] 97 % of control

O=C1CC(c2ccccc2Cl)N(S(=O)(=O)c2ccccc2)N1 (centres undefined)
inactive: [10] 112 % of control | [1] 104 % of control | [11] 107 % of control | [2] 102 % of control | dose: 400.0 mg/kg/injection, schedule: Q01DX009 (ip), vehicle: saline 106 % of control | [12] 102 % of control

Cc1ccc(S(=O)(=O)c2ccc(Cl)cc2)cc1
inactive: dose: 100.0 mg/kg/injection, schedule: Q04DX003 (ip), vehicle: acetone 110 % of control | dose: 200.0 mg/kg/injection, schedule: Q04DX003 (ip), vehicle: acetone 110 % of control | dose: 400.0 mg/kg/injection, schedule: Q04DX003 (ip), vehicle: acetone 109 % of control

CC(C=O)C=O
inactive: dose: 100.0 mg/kg/injection, schedule: Q01DX001 (ip), vehicle: Klucel (hydroxypropylcellulose) (HPC) 91 % of control | dose: 200.0 mg/kg/injection, schedule: Q01DX001 (ip), vehicle: Klucel (hydroxypropylcellulose) (HPC) 88 % of control | dose: 400.0 mg/kg/injection, schedule: Q01DX001 (ip), vehicle: Klucel (hydroxypropylcellulose) (HPC) 89 % of control

CCCOCCC(c1ccccc1)(c1ccccc1)c1ccccc1
inactive: dose: 12.5 mg/kg/injection, schedule: Q01DX009 (ip), vehicle: saline with Tween-80 98 % of control | dose: 25.0 mg/kg/injection, schedule: Q01DX009 (ip), vehicle: saline with Tween-80 98 % of control | dose: 50.0 mg/kg/injection, schedule: Q01DX009 (ip), vehicle: saline with Tween-80 95 % of control | [9] 87 % of control
